Key:
CK1ε = CK1ε (Homo sapiens (Human), UniProt P49674); test: CK1ε kinase assay (Caliper LabChip, fluoresceinated peptide substrate); format: biochemical; details: 200 pM CK1ε, 50 μM ATP, 1.5 μM peptide substrate, 22 hours room temperature
Description: (§1) CK1ε and CK1δ Kinase Assays
(§2) The kinase assay was performed in V-bottom 384-well plates. […] The reaction was incubated at room temperature for 22 hours and terminated by adding 45 μl of 35 mM EDTA to each sample. […] Compounds were dissolved at 10 mM in dimethylsulfoxide (DMSO) and evaluated at eleven concentrations. IC50 values were derived by non-linear regression analysis.

CK1δ = CK1δ (Homo sapiens (Human), UniProt P48730); test: CK1δ kinase assay (Caliper LabChip, fluoresceinated peptide substrate); format: biochemical; details: 200 pM CK1δ, 50 μM ATP, 1.5 μM peptide substrate, 22 hours room temperature
Chain of CK1δ (P48730 whole entry): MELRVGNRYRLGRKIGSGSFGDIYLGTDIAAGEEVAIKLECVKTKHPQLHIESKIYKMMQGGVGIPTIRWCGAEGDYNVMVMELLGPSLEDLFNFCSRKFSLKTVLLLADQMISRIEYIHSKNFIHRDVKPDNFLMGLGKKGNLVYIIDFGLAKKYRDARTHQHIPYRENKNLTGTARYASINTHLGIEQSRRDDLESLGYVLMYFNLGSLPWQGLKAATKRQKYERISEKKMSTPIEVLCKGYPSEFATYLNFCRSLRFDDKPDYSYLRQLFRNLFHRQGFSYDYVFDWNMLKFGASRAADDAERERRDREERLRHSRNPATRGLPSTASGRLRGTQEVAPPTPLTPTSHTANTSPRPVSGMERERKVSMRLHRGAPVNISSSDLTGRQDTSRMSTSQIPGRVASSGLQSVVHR
Description: as §1, §2

Chain of CK1ε (P49674 whole entry): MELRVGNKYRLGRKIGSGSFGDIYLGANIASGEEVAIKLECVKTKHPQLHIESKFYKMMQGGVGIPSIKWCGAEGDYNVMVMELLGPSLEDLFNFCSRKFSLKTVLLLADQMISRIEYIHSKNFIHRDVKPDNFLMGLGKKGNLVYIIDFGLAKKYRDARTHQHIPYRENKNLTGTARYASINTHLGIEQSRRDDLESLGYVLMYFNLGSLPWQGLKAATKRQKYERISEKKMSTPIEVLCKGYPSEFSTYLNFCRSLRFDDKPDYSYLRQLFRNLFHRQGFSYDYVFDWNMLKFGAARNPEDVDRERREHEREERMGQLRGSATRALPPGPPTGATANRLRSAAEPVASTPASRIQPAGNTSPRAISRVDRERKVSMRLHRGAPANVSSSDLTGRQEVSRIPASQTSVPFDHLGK

In the case of “2-fluoro-N-(6-(3-(4-fluorophenyl)-1- methyl-5-morpholino-1H-pyrazol-4-yl) imidazo[1,2-b]pyridazin-2-yl) isonicotinamide [Compound 144]”, the IC50 (CK1ε) is reported as 3.7 nM and the IC50 (CK1δ) is reported as 0.74 nM.

`Cn1cc(-c2ccc3nc(NC(=O)c4ccncc4)cn3n2)c(-c2ccc(F)cc2)n1` [Compound 1, N-(6-(3-(4-Fluorophenyl)-1-methyl-1H-pyrazol-4-yl)imidazo[1,2-b]pyridazin-2-yl)isonicotinamide] was tested, and the IC50 (CK1ε) was 7.4 nM and the IC50 (CK1δ) was 5.2 nM.

`Cn1cc(-c2ccc3nc(NC(=O)c4cc(Cl)nc5ccccc45)cn3n2)c(-c2ccc(F)cc2)n1` [Compound 2, 2-chloro-N-(6-(3-(4-fluorophenyl)-1-methyl-1H-pyrazol-4-yl)imidazo[1,2-b]pyridazin-2-yl)quinoline-4-carboxamide] showed an IC50 (CK1ε) of 19.2 nM and an IC50 (CK1δ) of 1.3 nM.

`Cc1nc(-c2ccncc2)sc1C(=O)Nc1cn2nc(-c3cn(C)nc3-c3ccc(F)cc3)ccc2n1` [Compound 4, N-(6-(3-(4-fluorophenyl)-1-methyl-1H-pyrazol-4-yl)imidazo[1,2-b]pyridazin-2-yl)-4-methyl-2-(pyridin-4-yl)thiazol-5-carboxamide] was tested, and the IC50 (CK1ε) was 13.7 nM and the IC50 (CK1δ) was 3.7 nM.

Compound `Cc1nc(-c2ccccn2)sc1C(=O)Nc1cn2nc(-c3cn(C)nc3-c3ccc(F)cc3)ccc2n1` [Compound 6, N-(6-(3-(4-fluorophenyl)-1-methyl-1H-pyrazol-4-yl)imidazo[1,2-b]pyridazin-2-yl)-4-methyl-2-(pyridin-2-yl)thiazol-5-carboxamide] has an IC50 (CK1ε) of 17.3 nM and an IC50 (CK1δ) of 4.3 nM.

In the case of `Cc1nc(-c2ccccc2)sc1C(=O)Nc1cn2nc(-c3cn(C)nc3-c3ccc(F)cc3)ccc2n1` [Compound 7, N-(6-(3-(4-fluorophenyl)-1-methyl-1H-pyrazol-4-yl)imidazo[1,2-b]pyridazin-2-yl)-4-methyl-2-phenylthiazol-5-carboxamide], the IC50 (CK1ε) is reported as 34.1 nM and the IC50 (CK1δ) is reported as 8.3 nM.

For `Cn1cc(-c2ccc3nc(NC(=O)c4csc(-c5ccncc5)n4)cn3n2)c(-c2ccc(F)cc2)n1` [Compound 8, N-(6-(3-(4-fluorophenyl)-1-methyl-1H-pyrazol-4-yl)imidazo[1,2-b]pyridazin-2-yl)-2-(pyridin-4-yl)thiazole-4-carboxamide], the IC50 (CK1ε) was 31.4 nM and the IC50 (CK1δ) was 5.4 nM.

For `Cn1cc(-c2ccc3nc(NC(=O)c4csc(-c5ccc(Cl)cc5)n4)cn3n2)c(-c2ccc(F)cc2)n1` [Compound 11, 2-(4-chlorophenyl)-N-(6-(3-(4-fluorophenyl)-1-methyl-1H-pyrazol-4-yl)imidazo[1,2-b]pyridazin-2-yl)thiazol-4-carboxamide], the IC50 (CK1ε) was 899 nM and the IC50 (CK1δ) was 24.6 nM.

Work on `Cc1nocc1C(=O)Nc1cn2nc(-c3cn(C)nc3-c3ccc(F)cc3)ccc2n1` [Compound 12, N-(6-(3-(4-fluorophenyl)-1-methyl-1H-pyrazol-4-yl)imidazo[1,2-b]pyridazin-2-yl)-3-methylisoxazole-4-carboxamide] yielded an IC50 (CK1ε) of 28.8 nM and an IC50 (CK1δ) of 7.3 nM.

With `Cn1cc(-c2ccc3nc(NC(=O)c4csc(Br)n4)cn3n2)c(-c2ccc(F)cc2)n1` [Compound 13, 2-bromo-N-(6-(3-(4-fluorophenyl)-1-methyl-1H-pyrazol-4-yl)imidazo[1,2-b]pyridazin-2-yl)thiazole-4-carboxamide] the IC50 (CK1ε) was 22.9 nM and the IC50 (CK1δ) was 2.6 nM.

In the case of `Cn1cc(-c2ccc3nc(NC(=O)c4ccccc4F)cn3n2)c(-c2ccc(F)cc2)n1` [Compound 20, 2-fluoro-N-(6-(3-(4-fluorophenyl)-1-methyl-1H-pyrazol-4-yl)imidazo[1,2-b]pyridazin-2-yl)benzamide], the IC50 (CK1ε) is reported as 9.2 nM and the IC50 (CK1δ) is reported as 4.3 nM.

`Cn1cc(-c2ccc3nc(NC(=O)c4ccno4)cn3n2)c(-c2ccc(F)cc2)n1` [Compound 22, N-(6-(3-(4-fluorophenyl)-1-methyl-1H-pyrazol-4-yl)imidazo[1,2-b]pyridazin-2-yl)isoxazole-5-carboxamide] showed an IC50 (CK1ε) of 15.2 nM and an IC50 (CK1δ) of 3.7 nM.

With `Cn1cc(-c2ccc3nc(NC(=O)c4cccc(F)c4)cn3n2)c(-c2ccc(F)cc2)n1` [Compound 23, 3-fluoro-N-(6-(3-(4-fluorophenyl)-1-methyl-1H-pyrazol-4-yl)imidazo[1,2-b]pyridazin-2-yl)benzamide] the IC50 (CK1ε) was 8.6 nM and the IC50 (CK1δ) was 2.6 nM.

`Cn1cc(-c2ccc3nc(NC(=O)c4ccc(Cl)cc4F)cn3n2)c(-c2ccc(F)cc2)n1` [Compound 24, 4-chloro-2-fluoro-N-(6-(3-(4-fluorophenyl)-1-methyl-1H-pyrazol-4-yl)imidazo[1,2-b]pyridazin-2-yl)benzamide] showed an IC50 (CK1ε) of 16.2 nM and an IC50 (CK1δ) of 6.3 nM.

Compound `Cn1cc(-c2ccc3nc(NC(=O)c4ccnnc4)cn3n2)c(-c2ccc(F)cc2)n1` [Compound 25, N-(6-(3-(4-fluorophenyl)-1-methyl-1H-pyrazol-4-yl)imidazo[1,2-b]pyridazin-2-yl)pyridazine-4-carboxamide] has an IC50 (CK1ε) of 14.5 nM and an IC50 (CK1δ) of 7.4 nM.

`Cn1cc(-c2ccc3nc(NC(=O)c4cncs4)cn3n2)c(-c2ccc(F)cc2)n1` [Compound 28, N-(6-(3-(4-fluorophenyl)-1-methyl-1H-pyrazol-4-yl)imidazo[1,2-b]pyridazin-2-yl) thiazole-5-carboxamide] was tested, and the IC50 (CK1ε) was 6.6 nM and the IC50 (CK1δ) was 3.1 nM.

In the case of `Cn1cc(-c2ccc3nc(NC(=O)c4ncccn4)cn3n2)c(-c2ccc(F)cc2)n1` [Compound 29, N-(6-(3-(4-fluorophenyl)-1-methyl-1H-pyrazol-4-yl)imidazo[1,2-b]pyridazin-2-yl)pyrimidine-2-carboxamide], the IC50 (CK1ε) is reported as 48.1 nM and the IC50 (CK1δ) is reported as 16 nM.

`Cn1cc(-c2ccc3nc(NC(=O)c4ccc(CN5CCCC5)cc4)cn3n2)c(-c2ccc(F)cc2)n1` [Compound 30, N-(6-(3-(4-fluorophenyl)-1-methyl-1H-pyrazol-4-yl)imidazo[1,2-b]pyridazin-2-yl)-4-(pyrrolidin-1-ylmethyl)benzamide] showed an IC50 (CK1ε) of 7.9 nM and an IC50 (CK1δ) of 5.8 nM.

`CCN(CC)Cc1ccc(C(=O)Nc2cn3nc(-c4cn(C)nc4-c4ccc(F)cc4)ccc3n2)cc1` [Compound 31, 4-((diethylamino)methyl)-N-(6-(3-(4-fluorophenyl)-1-methyl-1H-pyrazol-4-yl)imidazo[1,2-b]pyridazin-2-yl)benzamide] showed an IC50 (CK1ε) of 6.3 nM and an IC50 (CK1δ) of 3.9 nM.

In the case of `Cn1cc(-c2ccc3nc(NC(=O)c4cc(C(C)(C)C)ncn4)cn3n2)c(-c2ccc(F)cc2)n1` [Compound 32, 6-(tert-butyl)-N-(6-(3-(4-fluorophenyl)-1-methyl-1H-pyrazol-4-yl)imidazo[1,2-b]pyridazin-2-yl)pyrimidine-4-carboxamide], the IC50 (CK1ε) is reported as 98.3 nM and the IC50 (CK1δ) is reported as 10.1 nM.

For `COc1cc(C(=O)Nc2cn3nc(-c4cn(C)nc4-c4ccc(F)cc4)ccc3n2)nc(OC)n1` [Compound 39, N-(6-(3-(4-fluorophenyl)-1-methyl-1H-pyrazol-4-yl)imidazo[1,2-b]pyridazin-2-yl)-2,6-dimethoxypyrimidine-4-carboxamide], the IC50 (CK1ε) was 75.7 nM.

`Cn1cc(-c2ccc3nc(NC(=O)c4cncc(Cl)c4)cn3n2)c(-c2ccc(F)cc2)n1` [Compound 46, 5-chloro-N-(6-(3-(4-fluorophenyl)-1-methyl-1H-pyrazol-4-yl)imidazo[1,2-b]pyridazin-2-yl)nicotinamide] showed an IC50 (CK1δ) of 4.1 nM.

Work on `Cn1cc(-c2ccc3nc(NC(=O)c4ccnc(C(C)(C)C)c4)cn3n2)c(-c2ccc(F)cc2)n1` [Compound 50, 2-(tert-butyl)-N-(6-(3-(4-fluorophenyl)-1-methyl-1H-pyrazol-4-yl)imidazo[1,2-b]pyridazin-2-yl)isonicotinamide] yielded an IC50 (CK1ε) of 99.9 nM.

`COc1ncccc1C(=O)Nc1cn2nc(-c3cn(C)nc3-c3ccc(F)cc3)ccc2n1` [Compound 77, N-(6-(3-(4-fluorophenyl)-1-methyl-1H-pyrazol-4-yl)imidazo[1,2-b]pyridazin-2-yl)-2-methoxynicotinamide] was tested, and the IC50 (CK1δ) was 10.6 nM.

Compound `Cn1cc(-c2ccc3nc(NC(=O)C4CCCCC4)cn3n2)c(-c2ccc(F)cc2)n1` [Compound 87, N-(6-(3-(4-fluorophenyl)-1-methyl-1H-pyrazol-4-yl)imidazo[1,2-b]pyridazin-2-yl)cyclohexanecarboxamide] has an IC50 (CK1ε) of 11.3 nM.

With `CN1CCC(C(=O)Nc2cn3nc(-c4cn(C)nc4-c4ccc(F)cc4)ccc3n2)CC1` [Compound 90, N-(6-(3-(4-fluorophenyl)-1-methyl-1H-pyrazol-4-yl)imidazo[1,2-b]pyridazin-2-yl)-1-methylpiepridine-4-carboxamide] the IC50 (CK1ε) was 135 nM.

`Cn1cc(C(=O)Nc2cn3nc(-c4cn(C)nc4-c4ccc(F)cc4)ccc3n2)cn1` [Compound 98, N-(6-(3-(4-fluorophenyl)-1-methyl-1H-pyrazol-4-yl)imidazo[1,2-b]pyridazin-2-yl)-1-methyl-1H-pyrazole-4-carboxamide] gave an IC50 (CK1δ) of 2.6 nM.

For `Cn1nc(-c2ccc(F)cc2)c(-c2ccc3nc(NC(=O)c4ccnc(F)c4)cn3n2)c1N1CCN(C(=O)C2CC2)CC1` [Compound 122, N-(6-(5-(4-(Cyclopropanecarbonyl)piperazin-1-yl)-3-(4-fluorophenyl)-1-methyl-1H-pyrazol-4-yl)imidazo[1,2-b]pyridazin-2-yl)-2-fluoroisonicotinamide], the IC50 (CK1δ) was 0.5 nM.

`Cn1nc(-c2ccc(F)cc2)c(-c2ccc3nc(NC(=O)c4ccnc(F)c4)cn3n2)c1N1CCOCC1` [Compound 143, 2-Fluoro-N-(6-(3-(4-fluorophenyl)-1-methyl-5-morpholino-1H-pyrazol-4-yl)imidazo[1,2-b]pyridazin-2-yl)isonicotinamide] showed an IC50 (CK1δ) of 2 nM.

Work on `Cn1nc(-c2ccc(F)cc2)c(-c2ccc3nc(NC(=O)c4ccncc4)cn3n2)c1C1CCN(Cc2cscn2)CC1` [Compound 171, N-(6-(3-(4-fluorophenyl)-1-methyl-5-(1-(thiazol-4-ylmethyl)piperidin-4-yl)-1H-pyrazol-4-yl)imidazo[1,2-b]pyridazin-2-yl) isonicotinamide] yielded an IC50 (CK1δ) of 3.6 nM.

Reference: patent US9475817B2 (BRISTOL-MYERS SQUIBB COMPANY, priority 2012, dated 2016)
